The assay has as its system lung cancer cell lines (e.g. NCI-H23, NCI-H1229). As to the kind of experiment: Cell based assay, cell viability (CellTiter-Glo), lung cancer cell lines. As to conditions: Homo sapiens. Summed up:
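Following a 24 h pre-culture in plates, cells receive test compound (final 0 to 2 μM) for 72 hours. Luminescent quantitation of cellular ATP gives viability.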
Background: ATP-based viability assays read luminescence as a measure of living cells.

Setting [1] is: A549 cells, 72 hours treatment, CellTiter-Glo, read-out: IC50, lung cancer cell line A549.
Where [2] appears, read: DMS 114 cells, 72 hours treatment, CellTiter-Glo, read-out: IC50, lung cancer cell line DMS 114.
Setting [3] is: MRC-5 cells, 72 hours treatment, CellTiter-Glo, read-out: IC50.
Setting [4] is: NCI-H23 cells, 72 hours treatment, CellTiter-Glo, read-out: IC50, lung cancer cell line NCI-H23.
The mark [5] stands for this setting: NCI-H460 cells, 72 hours treatment, CellTiter-Glo, read-out: IC50, lung cancer cell line NCI-H460.
[6] abbreviates: NCI-H522 cells, 72 hours treatment, CellTiter-Glo, read-out: IC50, lung cancer cell line NCI-H522.
The mark [7] stands for this setting: NCI-H1299 cells, 72 hours treatment, CellTiter-Glo, read-out: IC50, lung cancer cell line NCI-H1299.
Setting [8] is: NCI-H1437 cells, 72 hours treatment, CellTiter-Glo, read-out: IC50, lung cancer cell line NCI-H1437.

Molecules are shown by their SMILES. Like-named read-outs stand apart in the source and are kept apart here.

`CC(C)C(=O)c1c([S+]([O-])Cc2ccc(SC(F)(F)F)cc2)[nH]c2c(F)ccc(F)c2c1=O` (stereo not shown) [Compound 85, 5,8-difluoro-3-isobutyryl-2-((4-((trifluoromethyl)thio)benzyl)sulfinyl)quinolin-4(1H)-one]: the IC50 under setting [1] is > 2 µM; the IC50 under setting [2] is > 2 µM; the IC50 under setting [3] was > 2 µM; the IC50 under setting [4] is > 2 µM; the IC50 under setting [5] was > 2 µM; the IC50 under setting [6] was > 2 µM. For the same molecule, the IC50 is > 2 µM under setting [7] and > 10 µM under setting [8].

Consider `COc1cccc2[nH]c([S+]([O-])Cc3cc(C)on3)c(C(C)=O)c(=O)c12` (stereo not shown) [Compound 94, 3-acetyl-5-methoxy-2-(((5-methylisoxazol-3-yl)methyl)sulfinyl)quinolin-4(1H)-one], for which the IC50 by setting is: under setting [1], > 2 µM; under setting [2], > 2 µM; under setting [3], > 2 µM; under setting [4], 2.07 µM; under setting [5], > 2 µM; under setting [6], > 2 µM. Also, the IC50 is > 2 µM under setting [7] and > 10 µM under setting [8].

For `CC(=O)c1c([S+]([O-])Cc2cccc(C#N)c2)[nH]c2c(Br)ccc(Cl)c2c1=O` (stereo not shown) [Compound 28, 3-(((3-acetyl-8-bromo-5-chloro-4-oxo-1,4-dihydroquinolin-2-yl)sulfinyl)methyl)benzonitrile], the IC50 under setting [1] is > 2 µM; the IC50 under setting [2] is > 2 µM; the IC50 under setting [3] was 0.7 µM; the IC50 under setting [4] stood at 0.75 µM; the concentration for half-maximal inhibition (IC50) under setting [5] was 1.6 µM; the IC50 under setting [6] was found to be 1.88 µM. Further, the IC50 was 1.11 µM under setting [7] and > 10 µM under setting [8].

As to `CC(=O)c1c([S+]([O-])Cc2ccc(NS(C)(=O)=O)cc2)[nH]c2c(Br)ccc(Cl)c2c1=O` (stereo not shown) [Compound 103, N-(4-(((3-acetyl-8-bromo-5-chloro-4-oxo-1,4-dihydroquinolin-2-yl)sulfinyl)methyl)phenyl)methane-sulfonamide], the IC50 (Lung cancer cell line A549, 72 hours, cell viability (CellTiter-Glo), read-out: IC50, A549) is > 2 µM; the IC50 (Lung cancer cell line DMS 114, 72 hours, cell viability (CellTiter-Glo), read-out: IC50, DMS 114) is > 2 µM; the IC50 (Lung cancer cell line NCI-H23, 72 hours, cell viability (CellTiter-Glo), read-out: IC50, NCI-H23) was > 2 µM; the IC50 (Lung cancer cell line NCI-H460, 72 hours, cell viability (CellTiter-Glo), read-out: IC50, NCI-H460) is > 2 µM; the IC50 (Lung cancer cell line NCI-H522, 72 hours, cell viability (CellTiter-Glo), read-out: IC50, NCI-H522) is > 2 µM; the IC50 (Lung cancer cell line NCI-H1299, 72 hours, cell viability (CellTiter-Glo), read-out: IC50, NCI-H1299) was > 2 µM. The IC50 reads like this: (Lung cancer cell line NCI-H1437, 72 hours, cell viability (CellTiter-Glo), read-out: IC50, NCI-H1437) > 10 µM; (MRC-5 (listed under Lung cancer cell line), 72 hours, cell viability (CellTiter-Glo), read-out: IC50, MRC-5) > 2 µM.

Turning to `COCSc1[nH]c2c(Br)ccc(Cl)c2c(=O)c1C(C)=O` [Compound 61, 3-acetyl-8-bromo-5-chloro-2-((methoxymethyl)thio)quinolin-4(1H)-one], the IC50 under setting [1] was > 2 µM; the IC50 under setting [2] is > 2 µM; the IC50 under setting [3] is > 2 µM; the IC50 under setting [4] is > 2 µM; the IC50 under setting [5] was > 2 µM; the IC50 under setting [6] was > 2 µM. Also, the IC50 is > 2 µM under setting [7] and > 10 µM under setting [8].

Take `CC(=O)c1c([S+]([O-])Cc2ccc(Cl)cc2)[nH]c2c(Br)ccc(Cl)c2c1=O` (stereo not shown) [Compound 11, 3-acetyl-8-bromo-5-chloro-2-((4-chlorobenzyl)sulfinyl)quinolin-4(1H)-one]: the IC50 is, setting by setting: under setting [1], > 2 µM; under setting [2], > 2 µM; under setting [3], > 2 µM; under setting [4], 1.55 µM; under setting [5], > 2 µM; under setting [6], > 2 µM. The IC50 is, setting by setting: under setting [7], > 2 µM; under setting [8], > 10 µM.

For `CC(=O)c1c(S)[nH]c2c(Br)ccc(Cl)c2c1=O` [Compound 62, 3-acetyl-8-bromo-5-chloro-2-mercaptoquinolin-4(1H)-one], the IC50 is > 2 µM under setting [1]; > 2 µM under setting [2]; > 2 µM under setting [3]; > 2 µM under setting [4]; > 2 µM under setting [5]; > 2 µM under setting [6]. Further, the IC50 is, setting by setting: under setting [7], > 2 µM; under setting [8], > 10 µM.

With `COc1cccc2[nH]c([S+]([O-])Cc3ccc(S(F)(F)(F)(F)F)cc3)c(C(C)=O)c(=O)c12` (stereo not shown) [Compound 93, 3-acetyl-5-methoxy-2-((4-(pentafluoro--sulfanyl)benzyl)sulfinyl)quinolin-4(1H)-one], the IC50 under setting [1] was > 2 µM; the IC50 under setting [2] was > 2 µM; the IC50 under setting [3] was > 2 µM; the IC50 under setting [4] is > 2 µM; the IC50 under setting [5] was > 2 µM; the IC50 under setting [6] is > 2 µM. Further, the IC50 is > 2 µM under setting [7] and > 10 µM under setting [8].

As for `CC(=O)c1c(S(C)(=O)=O)n(C(=O)c2ccc(Br)cc2)c2c(Br)ccc(Cl)c2c1=O` [Compound 21, 3-acetyl-8-bromo-1-(4-bromobenzoyl)-5-chloro-2-(methylsulfonyl)quinolin-4(1H)-one], the IC50 was > 2 µM under setting [1]; > 2 µM under setting [2]; > 2 µM under setting [3]; > 2 µM under setting [4]; > 2 µM under setting [5]; > 2 µM under setting [6]. In addition, the IC50 is, setting by setting: under setting [7], > 2 µM; under setting [8], > 10 µM.

As to `CC(=O)c1c(SCC#N)[nH]c2c(Br)ccc(Cl)c2c1=O` [Compound 66, 2-((3-acetyl-8-bromo-5-chloro-4-oxo-1,4-dihydroquinolin-2-yl)thio)acetonitrile], the IC50 was > 2 µM under setting [1]; > 2 µM under setting [2]; > 2 µM under setting [3]; > 2 µM under setting [4]; > 2 µM under setting [5]; > 2 µM under setting [6]. For the same molecule, the IC50 was > 2 µM under setting [7] and > 10 µM under setting [8].

Consider `CC(=O)c1c(Sc2ccc(Br)cc2)[nH]c2c(Br)ccc(Cl)c2c1=O` [Compound 16, 3-acetyl-8-bromo-2-((4-bromophenyl)thio)-5-chloroquinolin-4(1H)-one], for which the IC50 reads like this: under setting [1], > 2 µM; under setting [2], > 2 µM; under setting [3], > 2 µM; under setting [4], > 2 µM; under setting [5], > 2 µM; under setting [6], > 2 µM. The IC50 runs as follows: under setting [7], > 2 µM; under setting [8], > 10 µM.

For orientation: IC50 means the point on the concentration scale where inhibition reaches its midpoint.
